These results are taken from ChEMBL document CHEMBL5678818, “Discovery of potent SOS1 inhibitors that block RAS activation via disruption of the RAS-SOS1 interaction” (Proc Natl Acad Sci U S A, 2019).

Assay [1] addresses T1, NUAK family SNF1-like kinase 1 (Homo sapiens) (UniProt O60285).
T1 sequence (whole entry): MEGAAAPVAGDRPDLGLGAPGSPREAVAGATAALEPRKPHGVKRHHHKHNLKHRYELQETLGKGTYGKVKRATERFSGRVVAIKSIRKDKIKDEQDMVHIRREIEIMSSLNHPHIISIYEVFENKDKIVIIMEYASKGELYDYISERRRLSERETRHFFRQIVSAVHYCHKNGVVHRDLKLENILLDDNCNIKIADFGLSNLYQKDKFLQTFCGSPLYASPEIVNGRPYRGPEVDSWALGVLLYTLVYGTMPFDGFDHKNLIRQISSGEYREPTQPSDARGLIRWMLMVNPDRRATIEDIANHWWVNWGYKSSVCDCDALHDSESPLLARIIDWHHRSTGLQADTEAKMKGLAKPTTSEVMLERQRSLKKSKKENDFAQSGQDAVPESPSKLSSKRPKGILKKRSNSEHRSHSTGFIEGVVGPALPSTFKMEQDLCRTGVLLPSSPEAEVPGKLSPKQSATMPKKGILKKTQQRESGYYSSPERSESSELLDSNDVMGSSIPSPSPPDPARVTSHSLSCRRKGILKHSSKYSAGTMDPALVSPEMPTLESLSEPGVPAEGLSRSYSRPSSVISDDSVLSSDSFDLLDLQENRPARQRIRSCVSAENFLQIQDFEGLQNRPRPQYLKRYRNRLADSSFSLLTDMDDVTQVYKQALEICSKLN
In words: Inhibition of ARK5 (unknown origin) assessed as residual activity at 1000 nM by KINOMEscan analysis relative to control.

Assay [2] addresses Mitogen-activated protein kinase 6 (Homo sapiens) (UniProt Q16659). In words: Inhibition of ERK3 (unknown origin) assessed as residual activity at 1000 nM by KINOMEscan analysis relative to control.
Assay [3] has as its target T2, Rhodopsin kinase GRK7 (Homo sapiens) (UniProt Q8WTQ7).
T2 sequence (whole entry): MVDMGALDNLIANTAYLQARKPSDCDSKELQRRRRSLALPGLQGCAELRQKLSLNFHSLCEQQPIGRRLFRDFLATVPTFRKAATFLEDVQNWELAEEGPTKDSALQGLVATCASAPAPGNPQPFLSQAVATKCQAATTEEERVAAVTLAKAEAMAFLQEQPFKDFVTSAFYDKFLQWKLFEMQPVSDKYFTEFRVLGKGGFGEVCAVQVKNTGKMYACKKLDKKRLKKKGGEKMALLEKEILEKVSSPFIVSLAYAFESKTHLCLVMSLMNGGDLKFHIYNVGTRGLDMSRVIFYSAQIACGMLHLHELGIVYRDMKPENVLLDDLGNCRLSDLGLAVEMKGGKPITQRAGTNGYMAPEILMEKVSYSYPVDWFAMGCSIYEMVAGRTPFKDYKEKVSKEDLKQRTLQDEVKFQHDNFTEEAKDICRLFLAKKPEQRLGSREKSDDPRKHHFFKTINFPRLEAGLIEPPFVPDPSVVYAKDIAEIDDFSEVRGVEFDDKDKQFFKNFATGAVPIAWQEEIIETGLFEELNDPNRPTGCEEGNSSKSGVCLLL
The experiment in a line: Inhibition of GRK7 (unknown origin) assessed as residual activity at 1000 nM by KINOMEscan analysis relative to control.

The target of assay [4] is T3, Phosphatidylinositol 3-kinase C2 domain-containing subunit gamma (Homo sapiens) (UniProt O75747).
T3 sequence (whole entry): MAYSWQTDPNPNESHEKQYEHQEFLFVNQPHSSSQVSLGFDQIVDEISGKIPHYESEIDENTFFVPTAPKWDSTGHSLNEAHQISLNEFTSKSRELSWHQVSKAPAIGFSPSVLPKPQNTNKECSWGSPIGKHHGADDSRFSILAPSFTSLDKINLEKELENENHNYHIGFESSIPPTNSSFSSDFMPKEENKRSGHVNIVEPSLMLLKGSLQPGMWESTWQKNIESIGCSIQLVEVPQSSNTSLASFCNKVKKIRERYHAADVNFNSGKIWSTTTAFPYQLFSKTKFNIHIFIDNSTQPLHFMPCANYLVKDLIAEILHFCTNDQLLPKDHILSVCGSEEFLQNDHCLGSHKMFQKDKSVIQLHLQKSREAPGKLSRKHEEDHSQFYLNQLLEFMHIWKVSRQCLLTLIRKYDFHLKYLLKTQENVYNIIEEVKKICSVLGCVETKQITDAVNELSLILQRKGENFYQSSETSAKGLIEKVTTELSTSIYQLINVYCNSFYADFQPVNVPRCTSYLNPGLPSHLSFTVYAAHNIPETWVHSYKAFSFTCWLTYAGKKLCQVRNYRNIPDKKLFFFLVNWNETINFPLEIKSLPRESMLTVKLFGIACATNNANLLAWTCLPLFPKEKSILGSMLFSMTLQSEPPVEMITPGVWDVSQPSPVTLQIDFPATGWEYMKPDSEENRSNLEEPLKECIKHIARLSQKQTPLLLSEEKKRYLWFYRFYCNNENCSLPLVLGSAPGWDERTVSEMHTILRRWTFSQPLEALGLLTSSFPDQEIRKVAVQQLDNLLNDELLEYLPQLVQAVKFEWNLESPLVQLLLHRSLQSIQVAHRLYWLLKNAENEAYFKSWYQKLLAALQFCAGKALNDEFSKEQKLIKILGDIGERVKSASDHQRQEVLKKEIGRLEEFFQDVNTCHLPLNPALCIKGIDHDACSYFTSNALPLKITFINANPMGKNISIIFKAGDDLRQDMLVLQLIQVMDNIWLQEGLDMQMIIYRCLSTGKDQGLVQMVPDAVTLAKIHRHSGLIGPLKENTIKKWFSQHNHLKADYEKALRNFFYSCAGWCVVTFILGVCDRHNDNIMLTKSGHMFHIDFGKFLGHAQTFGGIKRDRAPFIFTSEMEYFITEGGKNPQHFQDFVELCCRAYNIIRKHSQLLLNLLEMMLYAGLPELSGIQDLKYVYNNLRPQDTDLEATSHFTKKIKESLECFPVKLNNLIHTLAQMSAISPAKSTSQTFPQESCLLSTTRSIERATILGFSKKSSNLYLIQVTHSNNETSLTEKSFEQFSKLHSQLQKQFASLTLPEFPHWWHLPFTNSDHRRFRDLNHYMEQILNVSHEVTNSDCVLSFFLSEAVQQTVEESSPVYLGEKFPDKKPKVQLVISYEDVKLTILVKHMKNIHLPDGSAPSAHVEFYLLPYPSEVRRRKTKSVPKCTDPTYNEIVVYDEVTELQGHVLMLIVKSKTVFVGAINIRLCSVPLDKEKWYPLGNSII
In words: Inhibition of PIK3C2G (unknown origin) assessed as residual activity at 1000 nM by KINOMEscan analysis relative to control.

For assay [5], the target named is RAF proto-oncogene serine/threonine-protein kinase (Homo sapiens) (UniProt P04049). In words: Inhibition of RAF1 (unknown origin) assessed as residual activity at 1000 nM by KINOMEscan analysis relative to control.
Assay [6] concerns the target SRSF protein kinase 1 (Homo sapiens) (UniProt Q96SB4). The experiment in a line: Inhibition of SRPK1 (unknown origin) assessed as residual activity at 1000 nM by KINOMEscan analysis relative to control.

Sequence of SRSF protein kinase 1 (Homo sapiens) (Q96SB4 whole entry): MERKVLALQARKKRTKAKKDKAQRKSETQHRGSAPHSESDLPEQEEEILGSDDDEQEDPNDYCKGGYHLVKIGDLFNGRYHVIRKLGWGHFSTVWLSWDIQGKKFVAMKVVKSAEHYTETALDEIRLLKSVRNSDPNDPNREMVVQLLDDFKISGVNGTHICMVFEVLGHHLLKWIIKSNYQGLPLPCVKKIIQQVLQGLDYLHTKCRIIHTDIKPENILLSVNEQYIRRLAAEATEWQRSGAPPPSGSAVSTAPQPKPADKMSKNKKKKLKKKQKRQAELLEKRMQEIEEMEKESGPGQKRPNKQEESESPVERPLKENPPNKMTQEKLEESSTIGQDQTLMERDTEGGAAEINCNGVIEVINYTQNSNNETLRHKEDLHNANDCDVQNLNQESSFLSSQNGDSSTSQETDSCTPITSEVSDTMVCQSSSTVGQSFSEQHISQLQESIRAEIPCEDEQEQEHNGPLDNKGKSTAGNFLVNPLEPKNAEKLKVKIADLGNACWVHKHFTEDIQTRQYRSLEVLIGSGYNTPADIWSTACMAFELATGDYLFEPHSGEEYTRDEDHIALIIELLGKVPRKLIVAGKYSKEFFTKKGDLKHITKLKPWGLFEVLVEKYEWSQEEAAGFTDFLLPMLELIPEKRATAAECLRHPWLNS
Sequence of Mitogen-activated protein kinase 6 (Homo sapiens) (Q16659 whole entry): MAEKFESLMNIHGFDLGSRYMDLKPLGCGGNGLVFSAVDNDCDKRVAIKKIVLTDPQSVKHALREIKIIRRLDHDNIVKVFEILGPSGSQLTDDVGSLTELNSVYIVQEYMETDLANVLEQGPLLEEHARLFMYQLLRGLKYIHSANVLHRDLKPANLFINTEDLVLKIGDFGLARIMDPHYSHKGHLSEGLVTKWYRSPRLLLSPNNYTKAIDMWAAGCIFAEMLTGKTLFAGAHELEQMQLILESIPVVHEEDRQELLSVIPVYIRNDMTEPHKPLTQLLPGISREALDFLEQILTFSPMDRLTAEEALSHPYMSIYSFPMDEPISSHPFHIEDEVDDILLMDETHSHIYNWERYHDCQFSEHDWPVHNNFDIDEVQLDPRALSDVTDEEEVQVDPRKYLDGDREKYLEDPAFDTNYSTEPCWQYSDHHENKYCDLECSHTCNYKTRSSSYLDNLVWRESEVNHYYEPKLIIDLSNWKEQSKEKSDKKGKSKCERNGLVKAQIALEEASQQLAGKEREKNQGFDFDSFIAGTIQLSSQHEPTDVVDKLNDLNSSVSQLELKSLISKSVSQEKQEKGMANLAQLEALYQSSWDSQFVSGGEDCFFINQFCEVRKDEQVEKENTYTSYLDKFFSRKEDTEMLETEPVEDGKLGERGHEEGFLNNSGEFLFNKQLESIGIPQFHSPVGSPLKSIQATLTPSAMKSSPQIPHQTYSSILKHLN
Sequence of RAF proto-oncogene serine/threonine-protein kinase (Homo sapiens) (P04049 whole entry): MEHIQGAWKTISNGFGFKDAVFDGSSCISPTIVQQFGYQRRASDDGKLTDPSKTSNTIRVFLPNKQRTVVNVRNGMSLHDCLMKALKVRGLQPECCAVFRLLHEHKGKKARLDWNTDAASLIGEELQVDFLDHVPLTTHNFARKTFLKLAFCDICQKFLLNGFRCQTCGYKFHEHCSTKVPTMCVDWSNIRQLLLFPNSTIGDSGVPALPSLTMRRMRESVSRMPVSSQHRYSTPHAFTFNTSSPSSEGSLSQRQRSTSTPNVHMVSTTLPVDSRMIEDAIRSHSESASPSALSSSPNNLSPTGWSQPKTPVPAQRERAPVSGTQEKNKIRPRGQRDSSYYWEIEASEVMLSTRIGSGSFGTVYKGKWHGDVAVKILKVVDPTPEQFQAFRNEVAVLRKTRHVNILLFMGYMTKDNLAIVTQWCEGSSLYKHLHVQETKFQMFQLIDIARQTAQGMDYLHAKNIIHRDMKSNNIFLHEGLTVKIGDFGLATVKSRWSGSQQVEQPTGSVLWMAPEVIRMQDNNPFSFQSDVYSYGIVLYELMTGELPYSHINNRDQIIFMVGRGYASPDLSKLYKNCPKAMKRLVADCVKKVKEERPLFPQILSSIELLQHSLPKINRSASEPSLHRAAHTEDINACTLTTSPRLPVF

With `COc1cc2nc(C)nc(N[C@H](C)c3cccc(-c4cn[nH]c4)c3)c2cc1OC`, the Activity in assay [1] is 100%; in assay [2], 100%; in assay [3] it was 100%; in assay [4] it was 87%; in assay [5], 100%; in assay [6], 77%.
For `COc1cc2ncnc(N[C@H](C)c3cccc4ccccc34)c2cc1OC`, the Activity in assay [1] is 83%; in assay [2] it was 94%; in assay [3] it was 81%; in assay [4] it was 35%; in assay [5], 94%; in assay [6], 98%.
